Experiments:
[1] = system: T-cell leukemia cell line Jurkat; test: Cell viability assay (Cell Counting Kit-8), Jurkat; format: cell-based; details: Homo sapiens, 72 hours, CCK-8, absorbance 450 nm
Description: (§1) To evaluate the cytotoxicity of the compounds synthesized in the Preparation Examples against cancer cells, a cell viability assay following treatment with the synthesized compounds was performed using a T-cell leukemia cell line Jurkat (KCLB, Cat# 40152), a human acute monocytic leukemia cell line MV-4-11 (ATCC, Cat# CRL-9591), and a human multiple myeloma cell line MM.1S (ATCC, Cat# CRL-2974).
(§2) As a culture medium for the cell lines, an RPMI medium containing 10 % heat-inactivated FBS and 1 % penicillin/streptomycin (P/S) antibiotics was used. The culture medium was stored refrigerated and warmed in a 37 °C water bath before use. Each cell line was used for the test after a stabilization period of at least 2 weeks after thawing, and cell culture was performed based on information provided by the cell line manufacturer regarding the thawing and subculture conditions.
(§3) The Jurkat, MV-4-11, or MM.1S cell line was seeded in a 96-well plate at a density of 1 × 10^4 cells/well and incubated in a 37 °C CO2 incubator overnight. After incubation, a prepared test compound was applied to each cell line, and the cells were incubated in a 37 °C CO2 incubator for 72 hours. After 72 hours of incubation, a Cell Counting Kit-8 (Dojindo, Cat# CK04-20) reagent was added, and the cells were incubated in a 37 °C CO2 incubator. Then, the absorbance was measured at 450 nm using a SpectraMax M3 Microplate Reader (N=2, duplicate measurement). The evaluation concentrations for evaluating the cytotoxicity of the compounds were 10 points: 100 µM, 20 µM, 4 µM, 0.8 µM, 0.16 µM, 0.032 µM, 0.0064 µM, 0.00128 µM, 0.000256 µM, and 0 µM, and the test was performed at 2 wells/concentration point (n=2). A GI50 was derived using a GraphPad Prism program.

[2] = target: T1, Cereblon (CRBN) protein (Homo sapiens, UniProt Q96SW2); test: CRBN binding affinity, E3scan (Eurofins) competition binding with qPCR read-out; details: lower % Ctrl = stronger binding, DMSO = 100 % Ctrl, lenalidomide = 0 % Ctrl
T1 construct: purchased Eurofins (E3scan service); host or cells: HEK-293
Description: Specifically, CRBN was produced using a HEK-293 cell line and labeled with DNA for qPCR detection. Streptavidin-coated magnetic beads were treated with a biotinylated small-molecule ligand at room temperature for 30 minutes to generate an affinity resin for E3scan analysis. The liganded beads were blocked with excess biotin and washed with a blocking buffer (SeaBlock (Pierce), 1 % BSA, 0.05 % Tween 20, 1 mM DTT) to remove unbound ligands and prevent non-specific binding. […] The test compound was prepared as a 100× stock in 100 % DMSO and diluted directly into the assay solution. All reactions were performed in a polypropylene 384-well plate with a final reaction volume of 0.02 mL. […] The CRBN concentration in the eluate was measured by qPCR. […] A lower '% Ctrl' indicates a stronger binding affinity. […] ((test compound signal−positive control signal)/(negative control signal−positive control signal)) × 100 [formula]

[3] = system: human multiple myeloma cell line MM.1S; test: Cell viability assay (Cell Counting Kit-8), MM.1S; format: cell-based; details: MM1.S, 72 hours, CCK-8, absorbance 450 nm
Description: as §1, §2, §3

Structure (SMILES) | GI50 [1] [nM] | CRBN binding affinity (% Ctrl @ 5µM) [2] | GI50 [3] [nM]
O=C1CCC(N2Cc3cc(C(=O)c4ccccc4)ccc3C2=O)C(=O)N1 (stereo not drawn) [Compound 1, 3-(5-benzoyl-1-oxoisoindolin-2-yl)piperidine-2,6-dione] | 100 to 1000 | C (1 ≤ % Ctrl' < 10) | 
O=C1CCC(N2Cc3nc(C(=O)c4ccccc4)ccc3C2=O)C(=O)N1 (stereo not drawn) [Compound 5, 3-(2-benzoyl-5-oxo-5,7-dihydro-6H-pyrrolo[3.4-b]pyridin-6-yl)piperidine-2,6-dione] |  | C (1 ≤ % Ctrl' < 10) | 
O=C1CCC(N2Cc3cc(C(=O)n4ncc5ccccc54)ccc3C2=O)C(=O)N1 (stereo not drawn) [Compound 6, 3-(5-(1H-indazole-1-carbonyl)-1-oxoisoindolin-2-yl)piperidine-2,6-dione] |  | A (0 ≤ '% Ctrl' < 0.1) | 
O=C1CCC(N2Cc3cc(C(=O)N4CCCC4)ccc3C2=O)C(=O)N1 (stereo not drawn) [Compound 7, 3-(1-oxo-5-(pyrrolidine-1-carbonyl)isoindolin-2-yl)piperidine-2,6-dione] |  | A (0 ≤ '% Ctrl' < 0.1) | 
O=C1CCC(N2Cc3cc(C(=O)c4c[nH]c5ccc(Cl)cc45)ccc3C2=O)C(=O)N1 (stereo not drawn) [Compound 8, 3-(5-(5-chloro-1H-indole-3-carbonyl)-1-oxoisoindolin-2-yl)piperidine-2,6-dione] | ≤ 100 |  | 
O=C1CCC(N2Cc3cc(C(=O)c4cc5cc(F)ccc5[nH]4)ccc3C2=O)C(=O)N1 (stereo not drawn) [Compound 9, 3-(5-(5-fluoro-1H-indole-2-carbonyl)-1-oxoisoindolin-2-yl)piperidine-2,6-dione] | ≤ 100 |  | ≤ 100
O=C1CCC(N2C(=O)c3ccc(C(=O)c4cc5ccccc5[nH]4)cc3C2=O)C(=O)N1 (stereo not drawn) [Compound 10, 2-(2,6-dioxopiperidin-3-yl)-5-(1H-indole-2-carbonyl)isoindoline-1,3-dione] | 1000 to 10000 | C (1 ≤ % Ctrl' < 10) | 
O=C1CCC(N2Cc3cc(C(=O)C4CCN(Cc5ccccc5)CC4)ccc3C2=O)C(=O)N1 (stereo not drawn) [Compound 11, 3-(5-(1-benzylpiperidine-4-carbonyl)-1-ox.oisoindolin-2-yl)piperidine-2,6-dione] |  | A (0 ≤ '% Ctrl' < 0.1) | 
O=C1CCC(N2Cc3cc(C(=O)c4ccccn4)ccc3C2=O)C(=O)N1 (stereo not drawn) [Compound 12, 3-(1-oxo-5-picolinoylisoindelin-2-yi)piperidine-2,6-dione] |  | A (0 ≤ '% Ctrl' < 0.1) | 
O=C1CCC(N2Cc3cc(C(=O)c4cccc(Nc5ccccc5)c4)ccc3C2=O)C(=O)N1 (stereo not drawn) [Compound 16, 3-(1-oxo-5-(3-(phenylamino)benzoyl)isoindolin-2-yl)piperidine-2,6-dione] | 1000 to 10000 | A (0 ≤ '% Ctrl' < 0.1) | 
O=C1CCC(N2Cc3cc(C(=O)c4c[nH]c5ccc(-c6ccccc6)cc45)ccc3C2=O)C(=O)N1 (stereo not drawn) [Compound 24, 3-(1-oxo-5-(5-phenyl-1H-indole-3-carbonyl)isoindolin-2-yl)piperidine-2,6-dione] |  | D (10 ≤ '% Ctrl' < 35) | 
O=C1CCC(N2Cc3cc(C(=O)c4cn(-c5ccccc5)c5ccc(-c6ccccc6)cc45)ccc3C2=O)C(=O)N1 (stereo not drawn) [Compound 25, 3-(5-(1,5-diphenyl-1H-indole-3-carbonyl)-1-oxoisoindolin-2-yl)piperidine-2,6-dione] |  | D (10 ≤ '% Ctrl' < 35) | 
O=C1CCC(N2Cc3cc(C(=O)c4cccc(-c5ccccc5)c4)ccc3C2=O)C(=O)N1 (stereo not drawn) [Compound 26, 3-(5-([1,1'-biphenyl]-3-carbonyl)-1-oxoisoindolin-2-yl)piperidine-2,6-dione] | 1000 to 10000 | A (0 ≤ '% Ctrl' < 0.1) | 
O=C1CCC(N2Cc3cc(C(=O)c4ccc(-c5ccccc5)[nH]4)ccc3C2=O)C(=O)N1 (stereo not drawn) [Compound 28, 3-(1-oxo-5-(5-phenyl-1H-pyrrole-2-carbonyl)isoindolin-2-yl)piperidine-2,6-dione] | 100 to 1000 | C (1 ≤ % Ctrl' < 10) | 
O=C1CCC(N2Cc3cc(C(=O)c4cc(-c5ccccc5)cs4)ccc3C2=O)C(=O)N1 (stereo not drawn) [Compound 30, 3-(1-oxo-5-(4-phenylthiophene-2-carbonyl)isoindolin-2-yl)piperidine-2,6-dione] | 100 to 1000 | A (0 ≤ '% Ctrl' < 0.1) | 
O=C1CCC(N2Cc3cc(C(=O)c4cn(Cc5ccccc5)c5ccccc45)ccc3C2=O)C(=O)N1 (stereo not drawn) [Compound 32, 3-(5-(1-benzyl-1H-indole-3-carbonyl)-1-oxoisoindolin-2-yl)piperidine-2.6-dione] | 100 to 1000 |  | 

Structure (SMILES) | GI50 [1] [nM] | CRBN binding affinity (% Ctrl @ 5µM) [2] | GI50 [3] [nM]
O=C1CCC(N2Cc3cc(C(=O)N4Cc5ccccc5C4)ccc3C2=O)C(=O)N1 (stereo not drawn) [Compound 36, 3-(5-(isoindoline-2-carbonyl)-1-oxoisoindolin-2-yl)piperidine-2,6-dione] | ≤ 100 | A (0 ≤ '% Ctrl' < 0.1) | 
O=C1CCC(N2Cc3cc(C(=O)C4CCCC4)ccc3C2=O)C(=O)N1 (stereo not drawn) [Compound 39, 3-(5-(cyclopentanecarbonyl)-1-oxoisoindolin-2-yl)piperidine-2,6-dione] | 1000 to 10000 |  | 
O=C1CCC(N2Cc3cc(C(=O)c4ccc(F)cc4)ccc3C2=O)C(=O)N1 (stereo not drawn) [Compound 40, 3-(5-(4-fluorobenzoyl)-1-oxoisoindolin-2-yl)piperidine-2,6-dione] | 100 to 1000 |  | 
O=C1CCC(N2Cc3cc(C(=O)c4ccc(N5CCCCC5)cc4)ccc3C2=O)C(=O)N1 (stereo not drawn) [Compound 41, 3-(1-oxo-5-(4-(piperidin-1-yl)benzoyl)isoindolin-2-yl)piperidine-2,6-dione] | 100 to 1000 |  | 
O=C1CCC(N2Cc3cc(C(=O)c4cccc5ccccc45)ccc3C2=O)C(=O)N1 (stereo not drawn) [Compound 43, 3-(5-(1-naphthoyl)-1-oxoisoindolin-2-yl)piperidine-2,6-dione] | 1000 to 10000 |  | 
O=C1CCC(N2Cc3cc(C(=O)c4ccc(OC(F)(F)F)cc4)ccc3C2=O)C(=O)N1 (stereo not drawn) [Compound 45, 3-(1-oxo-5-(4-(trifluoromethoxy)benzoyl)isoindolin-2-yl)piperidine-2,6-dione] | 100 to 1000 |  | 
O=C1CCC(N2Cc3cc(C(=O)c4ccc(Cl)cc4)ccc3C2=O)C(=O)N1 (stereo not drawn) [Compound 48, 3-(5-(4-chlorobenzoyl)-1-oxoisoindolin-2-yl)piperidine-2,6-dione] | 100 to 1000 |  | 
O=C1CCC(N2Cc3cc(C(=O)c4ccc(C(F)(F)F)cc4)ccc3C2=O)C(=O)N1 (stereo not drawn) [Compound 50, 3-(1-oxo-5-(4-(trifluoromethyl)benzoyl)isoindolin-2-yl)piperidine-2,6-dione] | 100 to 1000 |  | 
COc1ccc(C(=O)c2ccc3c(c2)CN(C2CCC(=O)NC2=O)C3=O)cc1 (stereo not drawn) [Compound 51, 3-(5-(4-methoxybenzoyl)-1-oxoisoindolin-2-yl)piperidine-2,6-dione] | 100 to 1000 |  | 
O=C1CCC(N2Cc3cc(C(=O)c4ccc(OCc5ccccc5)cc4)ccc3C2=O)C(=O)N1 (stereo not drawn) [Compound 53, 3-(5-(4-(benzyloxy)benzoyl)-1-oxoisoindolin-2-yl)piperidine-2,6-dione] | 100 to 1000 |  | 
Cc1ccc(C(=O)c2ccc3c(c2)CN(C2CCC(=O)NC2=O)C3=O)cc1 (stereo not drawn) [Compound 54, 3-(5-(4-methylbenzoyl)-1-oxoisoindolin-2-yl)piperidine-2,6-dione] | 100 to 1000 |  | 
Cc1cccc(C(=O)c2ccc3c(c2)CN(C2CCC(=O)NC2=O)C3=O)c1 (stereo not drawn) [Compound 61, 3-(5-(3-methylbenzoyl)-1-oxoisoindolin-2-yl)piperidine-2,6-dione] | ≤ 100 |  | 
Nc1ccc(C(=O)c2ccc3c(c2)CN(C2CCC(=O)NC2=O)C3=O)cc1 (stereo not drawn) [Compound 64, 3-(5-(4-aminobenzoyl)-1-oxoisoindolin-2-yl)piperidine-2,6-dione] | 100 to 1000 |  | 
O=C1CCC(N2Cc3cc(C(=O)c4ccc[nH]4)ccc3C2=O)C(=O)N1 (stereo not drawn) [Compound 73, 3-(1-oxo-5-(1H-pyrrole-2-carbonyl)isoindolin-2-yl)piperidine-2,6-dione] | ≤ 100 |  | 
O=C1CCC(N2Cc3cc(C(=O)c4ccc5ncsc5c4)ccc3C2=O)C(=O)N1 (stereo not drawn) [Compound 76, 3-(5-(benzo[d]thiazole-6-carbonyl)-1-oxoisoindolin-2-yl)piperidine-2,6-dione] | ≤ 100 |  | 
